Results on seven compounds are retold here after publication PMC6901109 (Bioorganic & medicinal chemistry letters, 2019).

The nature of one series: HLM half-life. Format: in vitro ADME. Particulars: human, liver microsomes.
A further series concerns Cryptococcus spp. The series can be described thus: Antifungal activity against Cryptococcus spp. Format: cell-based.
The test system of the next series is HepG2. The series can be described thus: HepG2 viability. Format: cell-based. The conditions noted are these: at a concentration of 3 μM.
The target in another series is T1, PigW (Homo sapiens, UniProt Q7Z7B1).
T1 sequence (Q7Z7B1 1-504): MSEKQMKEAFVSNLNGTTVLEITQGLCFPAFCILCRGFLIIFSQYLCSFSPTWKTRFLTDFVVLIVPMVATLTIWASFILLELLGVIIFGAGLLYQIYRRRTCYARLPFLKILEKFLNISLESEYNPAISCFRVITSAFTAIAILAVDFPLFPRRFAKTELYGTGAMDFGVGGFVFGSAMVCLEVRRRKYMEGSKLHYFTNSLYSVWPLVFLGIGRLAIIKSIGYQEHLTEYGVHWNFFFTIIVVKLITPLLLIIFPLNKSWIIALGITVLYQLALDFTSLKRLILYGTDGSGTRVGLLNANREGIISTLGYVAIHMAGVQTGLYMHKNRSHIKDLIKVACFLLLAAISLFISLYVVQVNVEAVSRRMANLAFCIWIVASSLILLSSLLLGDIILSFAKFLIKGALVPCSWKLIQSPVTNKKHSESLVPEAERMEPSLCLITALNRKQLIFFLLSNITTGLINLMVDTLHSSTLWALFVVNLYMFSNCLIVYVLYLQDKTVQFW
The series can be described thus: PigW assay. Format: biochemical.

Regarding `Nc1ncccc1-c1cc(Cc2ccc(Cc3ccco3)cc2)no1` [Compound 8d], the half-life in the series “HLM half-life” was ~3 min.
`Nc1ncccc1-c1cc(Cc2ccc(Cc3ccc(F)o3)cc2)no1` [Compound 8e] returned a half-life in “HLM half-life” of 14 min.
On to `Nc1ncccc1-c1cc(Cc2ccc(CNCc3ccn[nH]3)cc2)no1` [Compound 10b], for which the “antifungal activity (in words)” value in the series on Cryptococcus spp. was “inactive”.
As for `Cc1nccc(NCc2ccc(Cc3cc(-c4cccnc4N)on3)cc2)n1` [Compound 11b], the “antifungal activity (in words)” value with Cryptococcus spp. was “inactive”.
Take `Nc1ncccc1-c1cc(Cc2ccc(Oc3ccccn3)cc2)no1` [Compound 12b]: the “HepG2 cytotoxicity (in words)” value with HepG2 is listed as “significant liability”.
Regarding `Cc1occc1COc1ccc(Cc2cc(-c3cccnc3N)on2)cn1` [Compound 13k], in the series on Cryptococcus spp. (ortho-methyl group, vs 13j), the “fold weaker antifungal activity compared to the unsubstituted analog 13j” value is recorded as “about 100 fold”.
In the case of `Nc1ncccc1-c1cc(Cc2ccc(OCc3cccc(Cl)c3)nc2)no1` [Compound 13l], the “activity against the human homolog PigW (in words)” value at PigW is listed as “significant activity”. This compound came in with a half-life in the series “HLM half-life” of 68.2 min.

One may read the half-life as the time needed for the level to fall by half in the phase considered. Lower therefore signals fast loss.
